The target in assay [1] is T1, hSTING H232 (Homo sapiens, UniProt Q86WV6). Put plainly: Surface plasmon resonance, hSTING H232. The conditions noted are these: read-out: hSTING H232 SPR (Kd). Format: binding. (Surface plasmon resonance follows binding to a sensor surface in real time, without labels.)
In assay [2] the target is hSTING WT (Homo sapiens, UniProt Q86WV6). Put plainly: Surface plasmon resonance, hSTING WT. The conditions noted are these: read-out: hSTING WT SPR (Kd). The class given is binding.
Assay [3] addresses T2, mSTING (Mus musculus, UniProt Q3TBT3).
T2 sequence (Q3TBT3 1-378): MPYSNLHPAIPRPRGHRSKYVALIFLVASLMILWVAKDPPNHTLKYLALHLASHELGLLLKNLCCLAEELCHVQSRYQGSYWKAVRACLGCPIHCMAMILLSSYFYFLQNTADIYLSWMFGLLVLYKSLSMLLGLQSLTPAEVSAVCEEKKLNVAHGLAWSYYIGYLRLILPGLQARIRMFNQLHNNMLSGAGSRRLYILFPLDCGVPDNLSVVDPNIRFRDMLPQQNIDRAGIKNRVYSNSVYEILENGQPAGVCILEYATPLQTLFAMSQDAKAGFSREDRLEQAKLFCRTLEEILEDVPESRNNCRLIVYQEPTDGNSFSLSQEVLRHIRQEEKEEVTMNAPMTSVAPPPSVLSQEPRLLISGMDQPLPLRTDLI
Put plainly: 293-mSTING reporter assay. The class given is cell-based.

The test system of assay [4] is TROP2 positive NCI-H292 Cells. Put plainly: Cytokine release from cancer cells (MSD). The class given is cell-based, human. The conditions noted are these: 120 hours; for EC50: Homo sapiens. On the procedure: The cell supernatant was collected and IP-10 and IL-6 released in the cell culture medium was measured using Streptavidin single spot 96 well plates, compatible human antibody pairs, and calibrating solutions commercially available from MesoScale Discovery. Raw data generated by the Meso Scale Discovery (MSD®) SQ120 plate reader was imported into MSD Discovery Workbench software. Unknown sample values were interpolated from standard curves by the software and imported into Graphpad Prism. Each cytokine level was fitted with non-linear regression analysis, using log (agonist) vs. response, variable slope, 4-parameter fit equation in GraphPad Prism.

For assay [5], the target named is T1, hSTING H232. The assay can be described thus: THP1-Dual KI-hSTING-H232 reporter assay (IRF pathway, secreted Lucia luciferase). The class given is cell-based. Details: host or cells: THP1-Dual KI-hSTING-H232 (from THP1-Dual KO-STING). The conditions noted are these: THP1-Dual KI-hSTING-H232 cells, 24 hours; read-out: Reporter assay EC50 (nM) THP-1-H232. On the technique in general: Reporter assays use an easily measured gene product as a stand-in for the process of interest.

Assay [6] deals with T3, hSTING-HAQ haplotype (Homo sapiens, UniProt Q86WV6, G230A/H232R/R293Q/R71H).
T3 construct: host or cells: THP-1-Dual
Put plainly: THP-1-Dual reporter assay (endogenous hSTING-HAQ). The class given is cell-based. The conditions noted are these: THP-1-Dual cells (hSTING-HAQ), 24 hours.

For assay [7], the target named is hSTING AQ (Homo sapiens, UniProt Q86WV6, G230A/H232R/R293Q). Put plainly: Surface plasmon resonance, hSTING AQ. Format: binding. The note with it: read-out: hSTING AQ SPR (Kd).
Assay [8] deals with T4, hSTING-R232 (Homo sapiens, UniProt Q86WV6, H232R).
T4 construct: host or cells: THP1-Dual KI-hSTING-R232 (from THP1-Dual KO-STING)
Put plainly: THP1-Dual KI-hSTING-R232 reporter assay (IRF pathway, secreted Lucia luciferase). Format: cell-based. The conditions noted are these: THP1-Dual KI-hSTING-R232 cells, 24 hours; read-out: Reporter assay EC50 (nM) THP-1-R232.

Assay [9] deals with NCI-H292 cells. Put plainly: Immunogenic cell death markers (HMGB1 release, surface calreticulin). The class given is cell-based, human. The conditions noted are these: 48 hours; for EC50: Homo sapiens. On the procedure:
Immunogenic cell death elicited by the TROP2 ADC, iSAC, and exatecan were measured by cell surface translocate of calreticulin and release of HMGB1 in the cell culture supernatant. Briefly, TROP2 positive cell line NCI-H292 were seeded into a 96-well flat bottom plate 4 hours prior to the initialization of the assay. Test articles were formulated at a 2× starting concentration in cell culture medium, and samples were serial diluted (1:3) under sterile conditions and added onto the cells in duplicates. After incubation at 37° C. in a CO2 incubator for 48 hours, the cell supernatant was collected for measuring HMGB1 and the adherent cells were collected for calreticulin expression on the cell surface.
HMGB1 released in the supernatant was assessed via sandwich ELISA using mouse anti-human HMGB1 clone 2F6 (Sigma-Aldrich) as the capture, polyclonal rabbit anti-human HMGB1 (Abcam) as secondary, and polyclonal goat anti-rabbit IgG HRP as the detection antibody. The HMGB1 concentrations in the cell culture medium were calculated based a standard curve built on commercially available recombinant human HMGB1 (R&D Systems).
NCI-H292 cells were detached using Accutase (Innovative Cell Technologies) and viability was accessed using a 1:500 dilution of Zombie NIR viability dye. […] Surface calreticulin measures on the live cells were gathered using an Attune NXT Flow Cytometer (ThermoFisher Scientific) to obtain median fluorescence intensity values. All data were fitted with non-linear regression analysis, using log(agonist) vs. response, variable slope, 4 parameter fit equation using GraphPad Prism.

Assay [10] deals with TROP2 negative NCI-H460 cells. Put plainly: NCI-H460/PBMC co-culture: cancer cell count. Format: cell-based, human. The note with it: Table 10. On the procedure:
(§1) For the co-culture assay, cancer cells were plated on transparent flat bottom polystyrene plates and allowed to attach overnight. On the next day, serially diluted (1:4) test articles were formulated at 3× starting concentration in complete RPMI media and added onto each well. Human PBMCs were thawed and resuspended in RPMI supplemented with 10% heat-inactivated fetal bovine serum from Hyclone, 1% Penicillin/Streptomycin and 2 mmol/L-glutamax. PBMCs were then added into the same well at a final ratio of PBMCs:cancer cells =30:1. Plates were incubated for 2 or 3 days at 37° C. with 5% CO2 in a cell culture incubator.
(§2) On the day of sample collection, cell culture supernatants were collected and stored at −80° C. until cytokine release analyses were performed. […] After incubation on ice for 1 hour, cells were washed with FACS buffer and fixed with 50 ul/well of 2% PFA (paraformaldehyde) for 20 minutes. Cells were then washed with FACS buffer again and read on Cytek flow cytometer. FACS data analysis was done by Flowjo software to identifymonocytes, B cells, CD4+ T cells, CD8+ T cells, NK cells and Dendritic cells and their activation status. Data from Flowjo was exported and plotted using non-linear regression analysis, log (agonist/inhibitor) vs. response, variable slope, 4-parameter fit equation in GraphPad Prism. […]

Assay [11] concerns NCI-H441. Put plainly: NCI-H441/PBMC co-culture: cancer cell count. The note with it: Table 9. Format: cell-based, human. On the procedure: as §1, §2
[12] abbreviates: sandwich ELISA, read-out: HMGB-1 Release EC50.

Like-named read-outs stand apart in the source and are kept apart here.

hSTING AQ, sequence (Q86WV6 whole entry G230A/H232R/R293Q): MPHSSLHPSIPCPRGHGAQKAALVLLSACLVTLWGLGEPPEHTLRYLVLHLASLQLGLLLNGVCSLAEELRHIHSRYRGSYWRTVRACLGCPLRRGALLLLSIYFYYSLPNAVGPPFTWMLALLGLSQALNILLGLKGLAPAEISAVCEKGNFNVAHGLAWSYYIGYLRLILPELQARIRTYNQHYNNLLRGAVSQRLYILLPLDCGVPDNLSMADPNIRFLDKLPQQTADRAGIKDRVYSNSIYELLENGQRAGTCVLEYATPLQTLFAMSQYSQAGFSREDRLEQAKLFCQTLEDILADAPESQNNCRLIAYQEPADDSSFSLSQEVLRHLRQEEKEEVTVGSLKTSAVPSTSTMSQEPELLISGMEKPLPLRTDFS
hSTING WT, sequence (Q86WV6 whole entry H232R): as the sequence (Q86WV6 whole entry G230A/H232R/R293Q) above, with A230G, Q293R counted along it
T4 sequence (Q86WV6 whole entry H232R): as the sequence (Q86WV6 whole entry G230A/H232R/R293Q) above, with A230G, Q293R counted along it
T1 sequence (Q86WV6 whole entry): as the sequence (Q86WV6 whole entry G230A/H232R/R293Q) above, with A230G, R232H, Q293R counted along it
T3 sequence (Q86WV6 whole entry R71H/G230A/H232R/R293Q): as the sequence (Q86WV6 whole entry G230A/H232R/R293Q) above, with R71H counted along it

Consider `CCn1nc(C)cc1C(=O)Nc1nc2cc(C(N)=O)ccc2n1C/C=C/Cn1c(NC(=O)c2cc(C)nn2CC)nc2cc(C(N)=O)cc(OCCCN3CC4(CNCCO4)C3)c21` [Compound 1], for which the dissociation constant (Kd) in assay [1], in assay [2] and in assay [7] was not above 20 nM in each case. Besides, the EC50 (in general, the midpoint of the concentration-response curve) was more than 150 nM in assay [3]; more than 100 nM in assay [4] (read-out: IL-6 Release EC50); more than 100 nM in assay [4] (read-out: IP-10 Release EC50); not above 50 nM in assay [5]; not above 50 nM in [6]; not above 50 nM in assay [8]. For the same compound, the EC50 in [9] (setting [12]) is 6.06 nM. The “IL-6 Release Span” value in assay [4] was more than 10000 pg/mL. In addition, the “IP-10 Release Span” value in assay [4] is listed as more than 4000 pg/mL. In assay [9], the “HMGB-1 Release Span” value stood at 17 ng/mL.

Turning to `CCn1nc(C)cc1C(=O)Nc1nc2cc(C(N)=O)cc(OC)c2n1C/C=C/Cn1c(NC(=O)c2cc(C)nn2CC)nc2cc(C(N)=O)cc(OCCCN3CC4(CNCCO4)C3)c21` [Compound 6], the Kd in assay [1], in assay [2] and in [7] was not above 20 nM each time. The EC50 was 50 to 150 nM in assay [3], not above 50 nM in [5], not above 50 nM in assay [6] and not above 50 nM in assay [8].

Turning to `CC[C@@]1(O)C(=O)OCc2c1cc1n(c2=O)Cc2c-1nc1cc(F)c(C)c3c1c2[C@@H](N)CC3` [Exatecan, reference compound], the IC50 (in general, the midpoint of a concentration-inhibition curve) in assay [10] (Homo sapiens, NCI-H460/PBMC co-culture (TROP2 negative)) was determined as 0.38 nM; in [11] (Homo sapiens), 0.44 nM. Further, the “Cancer Cell Count Span (Cell Count)” value in [10] (NCI-H460/PBMC co-culture) is on record as 23,530 Cell Count; in assay [11], 5,749 Cell Count. Besides, the “IL-6 Release Span” value in [4] was 1410 pg/mL. For the same compound, in assay [4], the “IP-10 Release Span” value is listed as 203 pg/mL. Moreover, the EC50 in assay [4] (read-out: IL-6 Release EC50) came to 14.7 nM; in assay [4] (read-out: IP-10 Release EC50), 0.87 nM; in assay [9] (setting [12]) it was 2.08 nM; in [9] (surface calreticulin on live cells, read-out: Calreticulin EC50), 0.19 nM. In assay [9], the “Calreticulin Span (MFI)” value amounted to 783 MFI. Besides, the “HMGB-1 Release Span” value in [9] is 55 ng/mL.

For the compound `CCn1nc(C)cc1C(=O)Nc1nc2cc(C(N)=O)ccc2n1C/C=C/Cn1c(NC(=O)c2cc(C)nn2CC)nc2cc(C(N)=O)cc(OCCCN3CC4(C3)CN(C(=O)CON)CCO4)c21` [LP-1-1, 7-[3-[8-(2-aminooxyacetyl)-5-oxa-2,8-diazaspiro[3.5]nonan-2-yl]propoxy]-1-[(E)-4-[5-carbamoyl-2-[(2-ethyl-5-methyl-pyrazole-3-carbonyl)amino]benzimidazol-1-yl]but-2-enyl]-2-[(2-ethyl-5-methyl-pyrazole-3-carbonyl)amino]benzimidazole-5-carboxamide], the Kd in assay [1], in assay [2] and in assay [7] was not above 20 nM throughout. The EC50 was more than 150 nM in assay [3], more than 150 nM in [5], 50 to 150 nM in assay [6] and more than 150 nM in [8].

The values are drawn from patent US20250108048A1, “STING AGONIST COMPOUNDS AND CONJUGATES” (SUTRO BIOPHARMA, INC., priority 2023, published 2025).
